From PMC5344293, “A phase 1 dose-escalation and expansion study of binimetinib (MEK162), a potent and selective oral MEK1/2 inhibitor” (British Journal of Cancer, 2017)

Test: Phase 1 safety: adverse events
Type: in vivo, human
Protocol: All patients underwent a complete medical history and physical examination, assessment of ECOG performance status and vital signs, and laboratory analysis of haematology, coagulation, clinical chemistry, and urine. Three serial resting and supine 12-lead electrocardiograms were conducted over 5–10 min and cardiac ejection fraction was assessed by echocardiogram or MUGA. In addition, a complete ophthalmologic examination (including visual acuity; fundoscopy and tonometry; optical coherence tomography; and slit-lamp, lens, vitreous, and fluorescence dye examinations) was performed on each patient. These assessments were repeated throughout study participation and/or as clinically indicated. Adverse events were reviewed on an ongoing basis.
Adverse events and serious AEs (SAEs) were coded by preferred term (PT) and system organ class using the Medical Dictionary for Regulatory Activities version 12.0. The severity of AEs was assessed by investigators using the National Cancer Institute Common Terminology Criteria for Adverse Events version 3.0. Two AEs of special interest were captured under the composite terms of ‘combined rash' and ‘combined ocular events.' The ‘combined rash' term included the PTs of dermatitis acneiform, acne, skin exfoliation, and any term containing ‘rash'. The ‘combined ocular events' term included the PTs of retinal deposits, retinopathy, papilloedema, chorioretinopathy, macular oedema, retinal detachment, and retinal disorder.
All patients who received ⩾1 dose of binimetinib were included in the safety analysis. Patients in the safety analysis who had ⩾1 measurable lesion at baseline and at least 1 post-baseline disease assessment were evaluable for efficacy. Kaplan–Meier estimates of progression-free survival (PFS) and overall survival (OS) were performed for patients in the expansion phase ([Kaplan and Meier, 1958]) using SAS Version 9.2 (SAS Institute Inc., Cary, NC, USA).

Cn1cnc2c(F)c(Nc3ccc(Br)cc3F)c(C(=O)NOCCO)cc21 [binimetinib]
Abdominal pain (30 mg BID (n=4), Gr 1/2): 1 (25) n (%) | Anaemia (30 mg BID (n=4), Gr 1/2): 1 (25) n (%) | Anorexia (30 mg BID (n=4), Gr 1/2): 1 (25) n (%) | Combined ocular events (30 mg BID (n=4), Gr 1/2): 0 (0) n (%) | Combined rash (30 mg BID (n=4), Gr 1/2): 4 (100) n (%) | Constipation (30 mg BID (n=4), Gr 1/2): 2 (50) n (%) | Diarrhoea (30 mg BID (n=4), Gr 1/2): 4 (100) n (%) | Dizziness (30 mg BID (n=4), Gr 1/2): 0 (0) n (%) | Dyspnoea (30 mg BID (n=4), Gr 1/2): 2 (50) n (%) | Fatigue (30 mg BID (n=4), Gr 1/2): 2 (50) n (%) | Nausea (30 mg BID (n=4), Gr 1/2): 3 (75) n (%) | Peripheral oedema (30 mg BID (n=4), Gr 1/2): 0 (0) n (%) | Pyrexia (30 mg BID (n=4), Gr 1/2): 2 (50) n (%) | Vomiting (30 mg BID (n=4), Gr 1/2): 3 (75) n (%) | Abdominal pain (30 mg BID (n=4), Gr 3/4): 0 (0) n (%) | Anaemia (30 mg BID (n=4), Gr 3/4): 0 (0) n (%) | Anorexia (30 mg BID (n=4), Gr 3/4): 0 (0) n (%) | Combined ocular events (30 mg BID (n=4), Gr 3/4): 0 (0) n (%) | Combined rash (30 mg BID (n=4), Gr 3/4): 0 (0) n (%) | Constipation (30 mg BID (n=4), Gr 3/4): 0 (0) n (%) | Diarrhoea (30 mg BID (n=4), Gr 3/4): 0 (0) n (%) | Dizziness (30 mg BID (n=4), Gr 3/4): 0 (0) n (%) | Dyspnoea (30 mg BID (n=4), Gr 3/4): 0 (0) n (%) | Fatigue (30 mg BID (n=4), Gr 3/4): 0 (0) n (%) | Nausea (30 mg BID (n=4), Gr 3/4): 0 (0) n (%) | Peripheral oedema (30 mg BID (n=4), Gr 3/4): 0 (0) n (%) | Pyrexia (30 mg BID (n=4), Gr 3/4): 0 (0) n (%) | Vomiting (30 mg BID (n=4), Gr 3/4): 0 (0) n (%) | Incidence of ocular events (30 mg BID dose group): 0% | Patients reporting SAEs (30 mg BID dose group): 50% | Abdominal pain (45 mg BID (n=44), Gr 1/2): 7 (16) n (%) | Anaemia (45 mg BID (n=44), Gr 1/2): 5 (11) n (%) | Anorexia (45 mg BID (n=44), Gr 1/2): 8 (18) n (%) | Combined ocular events (45 mg BID (n=44), Gr 1/2): 5 (11) n (%) | Combined rash (45 mg BID (n=44), Gr 1/2): 33 (75) n (%) | Constipation (45 mg BID (n=44), Gr 1/2): 6 (14) n (%) | Diarrhoea (45 mg BID (n=44), Gr 1/2): 17 (39) n (%) | Dizziness (45 mg BID (n=44), Gr 1/2): 5 (11) n (%) | Dyspnoea (45 mg BID (n=44), Gr 1/2): 5 (11) n (%) | Fatigue (45 mg BID (n=44), Gr 1/2): 18 (41) n (%) | Nausea (45 mg BID (n=44), Gr 1/2): 27 (61) n (%) | Peripheral oedema (45 mg BID (n=44), Gr 1/2): 20 (45) n (%) | Pyrexia (45 mg BID (n=44), Gr 1/2): 7 (16) n (%) | Vomiting (45 mg BID (n=44), Gr 1/2): 23 (52) n (%) | Abdominal pain (45 mg BID (n=44), Gr 3/4): 1 (2) n (%) | Anaemia (45 mg BID (n=44), Gr 3/4): 3 (7) n (%) | Anorexia (45 mg BID (n=44), Gr 3/4): 0 (0) n (%) | Combined ocular events (45 mg BID (n=44), Gr 3/4): 0 (0) n (%) | Combined rash (45 mg BID (n=44), Gr 3/4): 1 (2) n (%) | Constipation (45 mg BID (n=44), Gr 3/4): 0 (0) n (%) | Diarrhoea (45 mg BID (n=44), Gr 3/4): 0 (0) n (%) | Dizziness (45 mg BID (n=44), Gr 3/4): 0 (0) n (%) | Dyspnoea (45 mg BID (n=44), Gr 3/4): 2 (5) n (%) | Fatigue (45 mg BID (n=44), Gr 3/4): 2 (5) n (%) | Nausea (45 mg BID (n=44), Gr 3/4): 0 (0) n (%) | Peripheral oedema (45 mg BID (n=44), Gr 3/4): 0 (0) n (%) | Pyrexia (45 mg BID (n=44), Gr 3/4): 0 (0) n (%) | Vomiting (45 mg BID (n=44), Gr 3/4): 0 (0) n (%) | AEs resulting in treatment discontinuation, patients (45 mg BID dose group): 16% | AEs that resulted in dose reduction, patients (45 mg BID dose group): 16% | Incidence of combined rash (45 mg BID dose group): 77% | Incidence of diarrhoea (45 mg BID dose group): 39% | Incidence of nausea (45 mg BID dose group): 61% | Incidence of ocular events (45 mg BID dose group): 11% | Incidence of peripheral oedema (45 mg BID dose group): 45% | Incidence of vomiting (45 mg BID dose group): 52% | Median time to onset of combined rash (45 mg BID dose group): 8 days | Patients reporting SAEs (45 mg BID dose group): 20% | Abdominal pain (60 mg BID (n=41), Gr 1/2): 7 (17) n (%) | Anaemia (60 mg BID (n=41), Gr 1/2): 5 (12) n (%) | Anorexia (60 mg BID (n=41), Gr 1/2): 8 (20) n (%) | Combined ocular events (60 mg BID (n=41), Gr 1/2): 11 (27) n (%) | Combined rash (60 mg BID (n=41), Gr 1/2): 35 (85) n (%) | Constipation (60 mg BID (n=41), Gr 1/2): 8 (20) n (%) | Diarrhoea (60 mg BID (n=41), Gr 1/2): 25 (61) n (%) | Dizziness (60 mg BID (n=41), Gr 1/2): 9 (22) n (%) | Dyspnoea (60 mg BID (n=41), Gr 1/2): 6 (15) n (%) | Fatigue (60 mg BID (n=41), Gr 1/2): 16 (39) n (%) | Nausea (60 mg BID (n=41), Gr 1/2): 21 (51) n (%) | Peripheral oedema (60 mg BID (n=41), Gr 1/2): 21 (51) n (%) | Pyrexia (60 mg BID (n=41), Gr 1/2): 7 (17) n (%) | Vomiting (60 mg BID (n=41), Gr 1/2): 20 (49) n (%) | Abdominal pain (60 mg BID (n=41), Gr 3/4): 3 (7) n (%) | Anaemia (60 mg BID (n=41), Gr 3/4): 10 (24) n (%) | Anorexia (60 mg BID (n=41), Gr 3/4): 0 (0) n (%) | Combined ocular events (60 mg BID (n=41), Gr 3/4): 0 (0) n (%) | Combined rash (60 mg BID (n=41), Gr 3/4): 1 (2) n (%) | Constipation (60 mg BID (n=41), Gr 3/4): 2 (5) n (%) | Diarrhoea (60 mg BID (n=41), Gr 3/4): 0 (0) n (%) | Dizziness (60 mg BID (n=41), Gr 3/4): 0 (0) n (%) | Dyspnoea (60 mg BID (n=41), Gr 3/4): 1 (2) n (%) | Fatigue (60 mg BID (n=41), Gr 3/4): 1 (2) n (%) | Nausea (60 mg BID (n=41), Gr 3/4): 0 (0) n (%) | Peripheral oedema (60 mg BID (n=41), Gr 3/4): 0 (0) n (%) | Pyrexia (60 mg BID (n=41), Gr 3/4): 1 (2) n (%) | Vomiting (60 mg BID (n=41), Gr 3/4): 0 (0) n (%) | AEs resulting in treatment discontinuation, patients (60 mg BID dose group): 15% | AEs that resulted in dose reduction, patients (60 mg BID dose group): 49% | Incidence of combined rash (60 mg BID dose group): 88% | Incidence of diarrhoea (60 mg BID dose group): 61% | Incidence of nausea (60 mg BID dose group): 51% | Incidence of ocular events (60 mg BID dose group): 27% | Incidence of peripheral oedema (60 mg BID dose group): 51% | Incidence of vomiting (60 mg BID dose group): 49% | Median time to onset of combined rash (60 mg BID dose group): 10 days | Patients reporting SAEs (60 mg BID dose group): 41% | Abdominal pain (80 mg BID (n=4), Gr 1/2): 1 (25) n (%)
